Molecules are shown by their SMILES.

In ChEMBL document CHEMBL5465560, “Selectivity Literature for EUbOPEN Chemogenomic Library” (2024) one finds % of inhibition and % of control data, which are given here for 8 compounds.

In test [1] the target is Interferon-induced, double-stranded RNA-activated protein kinase (Homo sapiens) (UniProt P19525). In words: Selectivity interaction (LanthaScreen Eu Kinase Binding Assay) EUB0001632a EIF2AK2. The note with it: at 10 µM. Background: In TR-FRET formats the signal depends on donor and acceptor labels being close together.
In the next test the target is SRSF protein kinase 1 (Homo sapiens, UniProt Q96SB4). In words: Selectivity interaction (KinomeScan (DiscoverX)) EUB0001619a SRPK1. The note with it: at 1 µM.
Test [2] has as its target Dual specificity protein kinase CLK2 (Homo sapiens, UniProt P49760). Nature of the test: Selectivity interaction (KinomeScan (DiscoverX)) EUB0000607a CLK2. The note with it: at 10 µM.
In test [3] the target is BDNF/NT-3 growth factors receptor (Homo sapiens) (UniProt Q16620). Nature of the test: Selectivity interaction (KinaseProfiler screening (Millipore)) EUB0000601a NTRK2. The note with it: at 3 µM.
Test [4] concerns the target T1, Phosphatidylinositol 5-phosphate 4-kinase type-2 gamma (Homo sapiens) (UniProt Q8TBX8).
T1 sequence (whole entry): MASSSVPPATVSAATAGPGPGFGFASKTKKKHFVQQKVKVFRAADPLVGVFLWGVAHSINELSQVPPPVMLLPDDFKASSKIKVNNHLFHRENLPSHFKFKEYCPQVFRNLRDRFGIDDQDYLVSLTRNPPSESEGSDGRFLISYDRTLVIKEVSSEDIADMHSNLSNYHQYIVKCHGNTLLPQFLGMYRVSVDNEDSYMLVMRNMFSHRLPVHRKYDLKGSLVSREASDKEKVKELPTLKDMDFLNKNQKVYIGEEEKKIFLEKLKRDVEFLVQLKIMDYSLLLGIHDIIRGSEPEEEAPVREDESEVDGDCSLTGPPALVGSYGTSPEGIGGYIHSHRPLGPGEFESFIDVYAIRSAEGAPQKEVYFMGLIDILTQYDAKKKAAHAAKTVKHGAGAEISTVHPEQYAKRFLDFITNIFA
In words: Selectivity interaction (ActivX KiNativ screen (kinase selectivity in THP-1 cell lysates)) EUB0000639a PIP4K2C. In kind it is subcellular. The note with it: lysate, at 0.04 µM.

The target of test [5] is Protein-tyrosine kinase 6 (Homo sapiens, UniProt Q13882). Nature of the test: Selectivity interaction (Kinase panel (Invitrogen)) EUB0000639a PTK6. Particulars: at 200 nM.
Test [6] deals with T2, Serine/threonine-protein kinase DCLK3 (Homo sapiens) (UniProt Q9C098).
T2 sequence (whole entry): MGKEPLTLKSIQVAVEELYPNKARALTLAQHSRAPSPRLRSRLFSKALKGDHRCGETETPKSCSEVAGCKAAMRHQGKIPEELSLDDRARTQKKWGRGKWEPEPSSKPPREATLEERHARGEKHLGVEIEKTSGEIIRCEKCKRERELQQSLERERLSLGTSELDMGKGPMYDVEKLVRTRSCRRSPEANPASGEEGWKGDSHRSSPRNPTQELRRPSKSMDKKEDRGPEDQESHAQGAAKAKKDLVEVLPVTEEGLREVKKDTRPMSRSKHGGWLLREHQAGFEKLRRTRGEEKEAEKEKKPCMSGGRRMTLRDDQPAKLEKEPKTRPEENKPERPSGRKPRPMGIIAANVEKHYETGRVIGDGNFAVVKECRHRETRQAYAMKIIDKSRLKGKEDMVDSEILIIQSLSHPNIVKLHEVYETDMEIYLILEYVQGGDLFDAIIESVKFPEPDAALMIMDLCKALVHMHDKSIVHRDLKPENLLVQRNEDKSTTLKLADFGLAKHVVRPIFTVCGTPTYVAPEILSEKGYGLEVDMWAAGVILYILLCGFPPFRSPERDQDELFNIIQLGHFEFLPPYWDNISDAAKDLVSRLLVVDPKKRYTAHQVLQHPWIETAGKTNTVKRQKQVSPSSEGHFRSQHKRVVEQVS
Nature of the test: Selectivity interaction (KinomeScan (DiscoverX)) EUB0000045b DCLK3.

The target in test [7] is T3, Serine/threonine-protein kinase TAO2 (Homo sapiens) (UniProt Q9UL54).
T3 sequence (whole entry): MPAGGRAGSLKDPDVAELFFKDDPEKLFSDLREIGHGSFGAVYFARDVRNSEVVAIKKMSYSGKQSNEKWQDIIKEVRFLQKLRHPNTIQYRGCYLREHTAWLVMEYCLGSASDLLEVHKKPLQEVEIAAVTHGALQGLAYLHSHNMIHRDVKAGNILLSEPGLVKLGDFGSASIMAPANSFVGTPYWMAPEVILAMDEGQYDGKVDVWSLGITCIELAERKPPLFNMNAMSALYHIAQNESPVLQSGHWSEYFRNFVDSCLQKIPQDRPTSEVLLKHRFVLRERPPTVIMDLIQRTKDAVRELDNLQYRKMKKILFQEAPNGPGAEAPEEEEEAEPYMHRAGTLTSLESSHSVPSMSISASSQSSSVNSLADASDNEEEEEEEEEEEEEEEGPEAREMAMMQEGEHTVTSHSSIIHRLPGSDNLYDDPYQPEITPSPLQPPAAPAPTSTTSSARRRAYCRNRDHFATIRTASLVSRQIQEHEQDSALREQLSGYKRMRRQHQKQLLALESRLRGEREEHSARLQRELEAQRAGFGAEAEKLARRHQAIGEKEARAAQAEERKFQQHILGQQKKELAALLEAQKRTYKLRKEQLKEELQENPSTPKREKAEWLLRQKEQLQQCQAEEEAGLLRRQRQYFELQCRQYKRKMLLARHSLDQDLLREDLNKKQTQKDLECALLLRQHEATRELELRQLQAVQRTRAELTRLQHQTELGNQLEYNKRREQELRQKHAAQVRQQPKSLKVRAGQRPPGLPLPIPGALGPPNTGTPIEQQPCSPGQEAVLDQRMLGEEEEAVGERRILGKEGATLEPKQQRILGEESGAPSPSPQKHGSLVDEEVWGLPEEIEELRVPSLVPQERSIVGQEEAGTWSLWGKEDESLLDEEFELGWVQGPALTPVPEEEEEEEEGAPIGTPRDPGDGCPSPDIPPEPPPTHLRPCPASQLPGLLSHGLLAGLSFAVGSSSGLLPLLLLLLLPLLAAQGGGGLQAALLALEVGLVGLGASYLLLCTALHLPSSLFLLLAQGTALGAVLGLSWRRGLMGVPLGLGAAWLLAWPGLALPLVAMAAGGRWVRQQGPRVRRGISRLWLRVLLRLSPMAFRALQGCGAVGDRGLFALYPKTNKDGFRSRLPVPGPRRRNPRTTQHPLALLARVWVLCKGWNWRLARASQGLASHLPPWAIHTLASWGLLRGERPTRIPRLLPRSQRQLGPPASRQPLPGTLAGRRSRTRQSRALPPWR
Nature of the test: Selectivity interaction (Kinase panel (literature)) EUB0001199aCl TAOK2. The note with it: at 1 µM.

Test [8] concerns the target Vascular endothelial growth factor receptor 2 (Homo sapiens, UniProt P35968). In words: Selectivity interaction (Upstate Kinase Profiler service (Millipore)) EUB0000056c KDR. Particulars: at 1 µM.

Sequence of Interferon-induced, double-stranded RNA-activated protein kinase (Homo sapiens) (P19525 whole entry): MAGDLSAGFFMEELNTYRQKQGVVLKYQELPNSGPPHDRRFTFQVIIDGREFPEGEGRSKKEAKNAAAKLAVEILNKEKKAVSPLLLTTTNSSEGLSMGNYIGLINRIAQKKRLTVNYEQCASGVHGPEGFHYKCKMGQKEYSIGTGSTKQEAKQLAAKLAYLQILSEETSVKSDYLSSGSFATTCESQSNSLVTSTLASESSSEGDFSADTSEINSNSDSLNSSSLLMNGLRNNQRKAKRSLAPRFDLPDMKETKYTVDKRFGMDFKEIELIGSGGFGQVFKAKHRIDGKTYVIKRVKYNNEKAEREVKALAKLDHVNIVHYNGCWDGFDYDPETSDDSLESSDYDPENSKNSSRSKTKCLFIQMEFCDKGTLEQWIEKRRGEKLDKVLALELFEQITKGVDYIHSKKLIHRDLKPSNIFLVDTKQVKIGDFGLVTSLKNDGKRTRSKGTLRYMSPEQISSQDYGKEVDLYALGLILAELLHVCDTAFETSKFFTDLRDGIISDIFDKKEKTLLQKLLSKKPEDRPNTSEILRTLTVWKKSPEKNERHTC
Sequence of Protein-tyrosine kinase 6 (Q13882 whole entry, looked up): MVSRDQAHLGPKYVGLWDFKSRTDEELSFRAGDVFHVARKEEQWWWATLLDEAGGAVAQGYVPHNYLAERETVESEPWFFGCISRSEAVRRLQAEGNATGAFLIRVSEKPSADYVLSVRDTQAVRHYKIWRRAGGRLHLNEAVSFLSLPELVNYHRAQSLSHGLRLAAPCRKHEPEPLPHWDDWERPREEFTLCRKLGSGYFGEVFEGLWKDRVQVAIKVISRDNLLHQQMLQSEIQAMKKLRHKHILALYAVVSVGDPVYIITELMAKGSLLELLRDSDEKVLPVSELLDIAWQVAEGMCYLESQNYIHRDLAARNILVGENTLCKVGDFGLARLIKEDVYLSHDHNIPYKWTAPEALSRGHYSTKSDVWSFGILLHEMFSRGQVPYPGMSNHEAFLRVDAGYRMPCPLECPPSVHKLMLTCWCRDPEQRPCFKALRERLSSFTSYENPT
Sequence of SRSF protein kinase 1 (Q96SB4 whole entry): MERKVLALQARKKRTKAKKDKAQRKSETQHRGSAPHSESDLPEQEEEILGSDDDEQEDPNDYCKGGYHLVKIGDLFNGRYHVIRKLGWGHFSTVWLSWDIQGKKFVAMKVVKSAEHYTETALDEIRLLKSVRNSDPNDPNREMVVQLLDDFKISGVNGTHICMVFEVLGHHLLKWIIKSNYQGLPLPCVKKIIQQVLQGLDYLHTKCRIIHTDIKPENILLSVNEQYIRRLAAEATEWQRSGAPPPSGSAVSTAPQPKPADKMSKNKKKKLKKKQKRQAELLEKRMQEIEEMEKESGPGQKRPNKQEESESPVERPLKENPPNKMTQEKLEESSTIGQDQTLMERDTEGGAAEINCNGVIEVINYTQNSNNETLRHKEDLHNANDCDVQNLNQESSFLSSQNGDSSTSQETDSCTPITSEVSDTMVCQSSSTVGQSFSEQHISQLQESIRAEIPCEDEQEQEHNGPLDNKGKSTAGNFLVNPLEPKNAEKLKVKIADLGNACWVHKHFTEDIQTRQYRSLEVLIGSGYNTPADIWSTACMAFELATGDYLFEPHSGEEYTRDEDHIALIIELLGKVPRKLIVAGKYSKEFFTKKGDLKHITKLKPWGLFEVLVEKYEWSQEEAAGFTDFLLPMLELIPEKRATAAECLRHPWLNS
Sequence of BDNF/NT-3 growth factors receptor (Homo sapiens) (Q16620 32-822 limits assumed): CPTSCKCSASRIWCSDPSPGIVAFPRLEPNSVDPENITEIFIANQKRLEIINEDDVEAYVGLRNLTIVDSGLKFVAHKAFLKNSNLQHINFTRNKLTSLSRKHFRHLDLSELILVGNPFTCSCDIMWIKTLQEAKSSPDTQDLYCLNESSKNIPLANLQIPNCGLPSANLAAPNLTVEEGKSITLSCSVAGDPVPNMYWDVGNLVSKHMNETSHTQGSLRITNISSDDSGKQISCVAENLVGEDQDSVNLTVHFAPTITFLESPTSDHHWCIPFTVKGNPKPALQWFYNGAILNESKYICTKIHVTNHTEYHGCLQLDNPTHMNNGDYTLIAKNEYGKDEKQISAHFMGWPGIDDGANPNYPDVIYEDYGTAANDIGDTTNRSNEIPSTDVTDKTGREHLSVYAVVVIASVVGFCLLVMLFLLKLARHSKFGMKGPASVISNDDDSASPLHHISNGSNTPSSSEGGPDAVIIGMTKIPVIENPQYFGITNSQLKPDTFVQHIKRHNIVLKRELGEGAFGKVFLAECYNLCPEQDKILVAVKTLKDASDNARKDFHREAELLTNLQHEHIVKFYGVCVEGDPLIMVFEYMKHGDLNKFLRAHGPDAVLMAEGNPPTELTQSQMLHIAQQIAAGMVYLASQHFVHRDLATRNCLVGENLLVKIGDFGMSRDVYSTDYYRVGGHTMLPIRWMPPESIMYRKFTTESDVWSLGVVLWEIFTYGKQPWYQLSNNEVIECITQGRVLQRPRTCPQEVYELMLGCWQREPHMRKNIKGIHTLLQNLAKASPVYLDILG
Sequence of Vascular endothelial growth factor receptor 2 (P35968 whole entry): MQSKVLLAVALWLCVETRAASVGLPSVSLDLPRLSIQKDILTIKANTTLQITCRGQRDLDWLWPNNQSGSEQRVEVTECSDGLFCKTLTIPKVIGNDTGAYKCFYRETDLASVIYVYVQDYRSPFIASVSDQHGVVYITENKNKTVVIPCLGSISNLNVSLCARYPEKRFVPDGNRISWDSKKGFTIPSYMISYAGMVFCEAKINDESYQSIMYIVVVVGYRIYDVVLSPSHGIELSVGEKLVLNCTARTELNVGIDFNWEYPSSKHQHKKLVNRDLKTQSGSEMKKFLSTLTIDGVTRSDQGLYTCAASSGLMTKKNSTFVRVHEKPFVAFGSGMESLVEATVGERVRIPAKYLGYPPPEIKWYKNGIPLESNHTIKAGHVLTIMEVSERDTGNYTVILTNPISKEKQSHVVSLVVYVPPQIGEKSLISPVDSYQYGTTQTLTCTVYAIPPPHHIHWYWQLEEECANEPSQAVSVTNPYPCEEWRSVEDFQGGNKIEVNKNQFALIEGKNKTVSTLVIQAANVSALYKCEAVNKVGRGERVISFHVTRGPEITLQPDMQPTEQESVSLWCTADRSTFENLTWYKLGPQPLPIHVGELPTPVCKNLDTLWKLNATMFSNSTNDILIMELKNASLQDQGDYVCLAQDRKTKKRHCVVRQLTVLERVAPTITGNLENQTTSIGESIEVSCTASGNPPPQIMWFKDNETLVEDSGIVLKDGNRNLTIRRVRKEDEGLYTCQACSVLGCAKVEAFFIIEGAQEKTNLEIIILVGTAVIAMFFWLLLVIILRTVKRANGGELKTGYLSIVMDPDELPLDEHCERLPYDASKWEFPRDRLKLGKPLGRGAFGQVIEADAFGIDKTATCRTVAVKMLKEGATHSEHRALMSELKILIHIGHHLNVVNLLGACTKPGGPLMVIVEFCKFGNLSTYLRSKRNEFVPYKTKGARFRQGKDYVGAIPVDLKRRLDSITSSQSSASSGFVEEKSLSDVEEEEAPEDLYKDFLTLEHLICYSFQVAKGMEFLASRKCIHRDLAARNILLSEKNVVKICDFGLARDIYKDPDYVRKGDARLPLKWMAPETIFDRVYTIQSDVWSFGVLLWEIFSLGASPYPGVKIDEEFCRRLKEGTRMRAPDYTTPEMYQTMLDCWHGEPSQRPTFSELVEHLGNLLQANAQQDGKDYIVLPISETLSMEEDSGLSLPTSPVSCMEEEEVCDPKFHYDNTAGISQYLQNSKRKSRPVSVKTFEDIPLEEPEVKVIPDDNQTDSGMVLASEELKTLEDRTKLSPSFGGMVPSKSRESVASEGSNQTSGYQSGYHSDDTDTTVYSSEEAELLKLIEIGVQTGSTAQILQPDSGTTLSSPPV
Sequence of Dual specificity protein kinase CLK2 (P49760 whole entry, looked up): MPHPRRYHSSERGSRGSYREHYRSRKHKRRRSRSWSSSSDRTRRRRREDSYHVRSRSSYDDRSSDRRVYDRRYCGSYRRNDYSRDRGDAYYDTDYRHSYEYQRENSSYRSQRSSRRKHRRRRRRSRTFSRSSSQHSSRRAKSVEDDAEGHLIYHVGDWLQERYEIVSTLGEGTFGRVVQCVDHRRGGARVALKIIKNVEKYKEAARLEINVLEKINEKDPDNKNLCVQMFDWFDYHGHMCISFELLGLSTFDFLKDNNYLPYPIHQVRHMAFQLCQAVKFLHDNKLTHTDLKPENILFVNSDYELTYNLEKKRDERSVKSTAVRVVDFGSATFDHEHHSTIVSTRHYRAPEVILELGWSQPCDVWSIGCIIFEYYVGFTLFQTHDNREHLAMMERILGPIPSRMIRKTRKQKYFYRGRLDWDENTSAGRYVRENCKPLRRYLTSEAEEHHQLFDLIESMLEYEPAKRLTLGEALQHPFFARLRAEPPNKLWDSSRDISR

As to `Cn1cc(-n2cnc3c(NCc4nc5cc(Cl)c(Cl)cc5[nH]4)nc(N4CCOCC4)nc32)cn1`, in test [1], the % of inhibition is -80.6%.

On to `N#Cc1cccc(-c2c[nH]c3ncnc(N4CCOCC4)c23)c1`, for which the % of control at SRSF protein kinase 1 was determined as 25%.

`CNC(=O)Nc1ccc(-c2nc(N3CC4CCC(C3)O4)c3cnn(C4CCC5(CC4)OCCO5)c3n2)cc1` registered a % of control in [2] of 98%.

On to `CCc1cc(Nc2nccc(-c3c(-c4ccc(OC)c(C(=O)Nc5c(F)cccc5F)c4)nc4ccccn34)n2)c(OC)cc1N1CCC(N2CCN(S(C)(=O)=O)CC2)CC1`, for which, in [3], the % of inhibition worked out at 47%.

As for `CC[C@@H]1[C@H](F)C(=O)N[C@@H]1COc1nccc2cc(C(N)=O)c(OC)cc12` [ZIMLOVISERTIB], the % of inhibition in test [4] was 6.2%; in [5], -1.08%.

As for `C=CC(=O)Nc1cc(-n2c(=O)ccc3cnc4ccc(-c5ccc(NS(C)(=O)=O)cc5)cc4c32)ccc1C`, the % of control in test [6] (at 1 µM) is 94%; in [6] (at 10 µM), 78%.

Regarding `CN1Cc2nccc(-c3cn(C)nc3-c3ccc(F)cc3)c2C1=O`, in test [7], the % of inhibition was -1%.

Turning to `Cc1ccc(-c2ccc3c(ccc4sc5c(c43)NC[C@@H](C)NC5=O)n2)cn1`, the % of inhibition in test [8] was 21%.
